Results reported in ChEMBL document CHEMBL1201862, “PubChem BioAssay data set” (2004).
The source made the active and inactive calls.

What was measured:
[1] = target: FAD-linked sulfhydryl oxidase ALR (Homo sapiens, UniProt P55789); test: inhibitors of human ALR sulfhydryl oxidase, dose response, biochemical, H2O2 detection, luminescence, cherry-pick (AID 493248)
[2] = target: Luciferin 4-monooxygenase (Photinus pyralis, UniProt P08659); test: firefly luciferase enzyme inhibitors, dose response, biochemical, luminescence (AID 1891)
Luciferin 4-monooxygenase, sequence (P08659 whole entry): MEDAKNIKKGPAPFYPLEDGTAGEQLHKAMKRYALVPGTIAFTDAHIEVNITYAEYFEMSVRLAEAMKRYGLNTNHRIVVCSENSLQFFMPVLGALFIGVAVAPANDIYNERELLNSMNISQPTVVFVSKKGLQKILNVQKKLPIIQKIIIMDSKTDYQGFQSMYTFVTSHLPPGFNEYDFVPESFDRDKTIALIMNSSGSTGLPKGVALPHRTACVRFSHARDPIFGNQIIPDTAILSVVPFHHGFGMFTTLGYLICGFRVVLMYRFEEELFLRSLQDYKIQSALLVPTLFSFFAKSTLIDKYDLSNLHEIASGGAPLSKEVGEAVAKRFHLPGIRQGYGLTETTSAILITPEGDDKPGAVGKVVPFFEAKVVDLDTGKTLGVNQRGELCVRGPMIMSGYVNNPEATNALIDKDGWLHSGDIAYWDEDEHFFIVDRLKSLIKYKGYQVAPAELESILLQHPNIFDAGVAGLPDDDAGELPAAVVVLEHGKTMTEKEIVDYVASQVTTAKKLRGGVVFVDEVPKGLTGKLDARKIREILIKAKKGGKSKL

[3] = Luminescence Cell-Based Dose Confirmation HTS to Identify Inhibitors of Platelet Dense Granule Release. [Related pubchem assays: 1663 (Primary HTS), 1678 (Summary of Project)]; assay type: functional
cells [4] = assay type: functional
[5] = inhibitors of intracellular T. cruzi replication, confirmation, NIH3T3 host cells, beta-gal luminescence (AID 2044); assay type: functional, cell-based;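 note: intracellular parasites grown in NIH/3T3 mouse fibroblasts as host cells; luminescent beta-galactosidase reporter signal from transgenic T. cruzi replicating inside host cells; inhibitors lower the luminescence signal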
[6] = cytotoxicity toward NIH3T3 fibroblasts, dose response, counter-screen, cell-based, ATP luminescence, mouse fibroblasts (AID 2010); assay type: functional;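 note: cells exposed to compound for about 90 hours before reading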
[7] = Luminescence Cell-Based Dose Retest to Confirm Inhibitors of Cancer Stem Cells. [Related pubchem assays (depositor defined):AID2717, AID2721]; assay type: functional; conditions: Homo sapiens
[8] = Shn3 3'UTR reporter inhibitors, dose response, cell-based, Clone20 osteoblasts, firefly luciferase, cherry-picked (AID 624132); assay type: functional;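 note: firefly luciferase luminescence from reporter carrying the Shn3 3'UTR in osteoblasts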
[9] = HepG2 cell cytotoxicity, dose response, cytotoxicity control for Shn3 inhibitor project, CellTiter-Glo, cherry-picked (AID 624134); assay type: functional, cell-based
[10] = control 3'UTR Renilla luciferase suppression, dose response, counter-screen for Shn3 inhibitor project, cell-based, Clone20-Shn3RL, cherry-picked (AID 624133); assay type: functional
Cytochrome P450 1A2 = target: T1, Cytochrome P450 1A2 (Homo sapiens, UniProt P05177);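 note: PubChem cytochrome P450 panel assay, CYP1A2 panel member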
T1 sequence (P05177 whole entry): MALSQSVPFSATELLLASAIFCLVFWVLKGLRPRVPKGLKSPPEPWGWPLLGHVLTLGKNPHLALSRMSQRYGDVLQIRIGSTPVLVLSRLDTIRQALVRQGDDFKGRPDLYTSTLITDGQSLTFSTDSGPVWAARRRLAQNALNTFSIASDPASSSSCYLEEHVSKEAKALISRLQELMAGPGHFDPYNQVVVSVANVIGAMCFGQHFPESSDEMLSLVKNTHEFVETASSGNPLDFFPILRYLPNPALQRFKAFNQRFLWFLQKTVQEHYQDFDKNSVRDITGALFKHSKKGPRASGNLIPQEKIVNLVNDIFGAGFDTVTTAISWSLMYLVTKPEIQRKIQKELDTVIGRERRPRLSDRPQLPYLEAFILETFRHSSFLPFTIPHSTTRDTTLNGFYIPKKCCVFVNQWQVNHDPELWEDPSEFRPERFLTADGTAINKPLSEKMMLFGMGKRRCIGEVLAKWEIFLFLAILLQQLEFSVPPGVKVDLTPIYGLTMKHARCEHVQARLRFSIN

Cytochrome P450 3A4 = Cytochrome P450 3A4 (Homo sapiens, UniProt P08684);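 note: CYP3A4 tested as one member of a cytochrome P450 panel screen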
Cytochrome P450 3A4, sequence (P08684 whole entry): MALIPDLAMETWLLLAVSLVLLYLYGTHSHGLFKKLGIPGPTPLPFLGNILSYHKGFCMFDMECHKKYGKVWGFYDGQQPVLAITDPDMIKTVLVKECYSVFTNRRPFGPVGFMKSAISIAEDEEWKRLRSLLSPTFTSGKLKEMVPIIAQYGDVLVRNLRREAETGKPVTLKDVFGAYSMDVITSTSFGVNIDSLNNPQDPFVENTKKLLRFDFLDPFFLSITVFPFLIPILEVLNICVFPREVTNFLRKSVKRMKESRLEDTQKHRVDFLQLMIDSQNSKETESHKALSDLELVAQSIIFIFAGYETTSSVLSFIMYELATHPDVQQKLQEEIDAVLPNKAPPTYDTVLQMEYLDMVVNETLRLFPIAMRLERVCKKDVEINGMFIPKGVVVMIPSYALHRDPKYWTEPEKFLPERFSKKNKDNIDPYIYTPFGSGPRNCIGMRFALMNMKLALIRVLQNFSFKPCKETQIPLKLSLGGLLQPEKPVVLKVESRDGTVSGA

[11] = target: T2, Polyadenylate-binding protein 1 (Homo sapiens, UniProt P11940); test: PABP1 MLLE–PAM2 interaction inhibitors, dose response, miRNA deadenylation inhibitor project, biochemical, fluorescence polarization, Cy5-PAM2 peptide, secondary (AID 602260); assay type: functional; conditions: read-out: IC50_Mean
T2 sequence (P11940 whole entry): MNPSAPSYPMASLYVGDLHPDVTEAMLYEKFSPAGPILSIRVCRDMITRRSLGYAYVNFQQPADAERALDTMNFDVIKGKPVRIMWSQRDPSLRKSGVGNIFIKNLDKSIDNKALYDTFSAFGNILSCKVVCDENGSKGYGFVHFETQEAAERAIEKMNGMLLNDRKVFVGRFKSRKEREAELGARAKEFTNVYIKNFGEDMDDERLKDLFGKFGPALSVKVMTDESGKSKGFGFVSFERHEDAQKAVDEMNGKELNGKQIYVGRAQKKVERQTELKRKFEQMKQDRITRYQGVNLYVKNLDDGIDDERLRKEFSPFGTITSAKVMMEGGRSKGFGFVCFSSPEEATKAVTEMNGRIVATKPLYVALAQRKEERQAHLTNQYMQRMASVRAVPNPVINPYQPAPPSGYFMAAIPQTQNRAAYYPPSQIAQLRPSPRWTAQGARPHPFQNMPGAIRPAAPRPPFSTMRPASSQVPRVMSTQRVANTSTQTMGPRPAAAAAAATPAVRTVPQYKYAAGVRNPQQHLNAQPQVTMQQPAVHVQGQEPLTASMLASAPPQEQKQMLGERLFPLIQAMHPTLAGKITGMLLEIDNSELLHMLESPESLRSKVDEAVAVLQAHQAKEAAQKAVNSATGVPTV

[12] = target: T2, Polyadenylate-binding protein 1; test: PABP1 MLLE–PAM2 binding inhibitor potency, dose response, biochemical, fluorescence polarization, FITC-PAM2 peptide (AID 602259); assay type: functional; conditions: read-out: IC50_Mean
[13] = HEp-2 cell cytotoxicity, dose response, cytotoxicity control for RSV inhibitor project, HTS (AID 2410); assay type: functional; conditions: human respiratory syncytial virus
[14] = growth suppression of PTEN-null colon cells, dose response, cell-based, HCT116 PTEN knockout (AID 1047); assay type: functional;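 note: HCT116 colon tumor cells with PTEN knocked out; cells exposed to compound for 60 hours before readout; potency for loss of cell viability measured by luminescence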
[15] = growth suppression of beta-catenin-knockout colon cells, dose response, cell-based, HCT116, human colon tumor (AID 1045); assay type: functional;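 note: HCT116 colon tumor cells with beta catenin knocked out; cells exposed to compound for 60 hours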
[16] = target: T3, Heat shock factor protein 1 (Mus musculus, UniProt P38532); test: inhibition of MG132-induced HSE-luciferase signal, confirmation, cell-based, NIH3T3, luminescence, dose retest (AID 2382); assay type: functional;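 note: NIH3T3 fibroblasts with HSF1-driven luciferase reporter stressed by proteasome inhibitor MG132; luminescence from HSF1-driven luciferase expression after 8 hours of MG132 stress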
T3 sequence (P38532 whole entry): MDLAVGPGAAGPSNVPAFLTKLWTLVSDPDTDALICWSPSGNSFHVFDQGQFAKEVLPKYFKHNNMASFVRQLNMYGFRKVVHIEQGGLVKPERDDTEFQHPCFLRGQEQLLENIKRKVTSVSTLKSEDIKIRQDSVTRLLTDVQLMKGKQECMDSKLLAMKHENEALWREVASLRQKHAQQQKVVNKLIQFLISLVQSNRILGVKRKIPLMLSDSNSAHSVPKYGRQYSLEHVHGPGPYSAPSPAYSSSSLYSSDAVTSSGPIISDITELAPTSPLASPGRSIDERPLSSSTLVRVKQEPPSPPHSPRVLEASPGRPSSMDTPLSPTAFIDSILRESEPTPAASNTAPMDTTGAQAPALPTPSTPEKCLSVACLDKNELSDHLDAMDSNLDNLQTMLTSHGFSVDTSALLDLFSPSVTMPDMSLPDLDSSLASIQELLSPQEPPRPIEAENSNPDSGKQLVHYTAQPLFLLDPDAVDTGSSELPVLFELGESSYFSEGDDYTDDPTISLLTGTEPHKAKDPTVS

cells [17] = assay type: functional, cell-based
cells [18] = assay type: functional, cell-based; remark: listed apart in the source

FAD-linked sulfhydryl oxidase ALR, sequence (P55789 whole entry): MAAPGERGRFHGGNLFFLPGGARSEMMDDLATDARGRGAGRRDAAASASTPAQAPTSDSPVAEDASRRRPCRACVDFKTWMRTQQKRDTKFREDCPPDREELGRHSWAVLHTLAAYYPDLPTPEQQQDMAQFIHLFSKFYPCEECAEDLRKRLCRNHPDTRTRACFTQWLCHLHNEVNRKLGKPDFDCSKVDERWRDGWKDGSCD

O=P(CN1CCN(c2ccccc2)CC1)(N1CCCCC1)N1CCCCC1
AC50 [1]: 0.656 µM (active)

COc1cccc(Nc2c(F)c(F)c(F)c(F)c2C(=O)O)c1
AC50 [1]: 4.26 µM (active)

CCOC(=O)C1CCN(C(=O)CCc2nnc3ccc(NCc4ccco4)nn23)CC1
EC50 [2]: > 112 µM (not active)
EC50 [3]: > 112 µM (not active)

CC(C)=CCN1CCN(CCC2=C(C)CCCC2(C)C)CC1CCO (stereo unspecified)
IC50 (cells [4]): 21.8 µM (active)

Cn1cc(C(=O)N2CCCC(Nc3ccc(F)cc3)C2)c2ccccc21 (stereo unspecified)
AC50 [1]: 1.5 µM (active)

O=C(O)Cn1cc(C(=S)N2CCCCC2)c2ccccc21
AC50 [1]: 0.407 µM (active)

O=C(CN1C(=O)NC2(CCCCCC2)C1=O)c1ccccc1
EC50 [2]: > 112 µM (not active)
EC50 [3]: > 112 µM (not active)

Cc1ccc(CN(C(=O)c2csnn2)C(C(=O)NC2CCCC2)c2ccco2)cc1 (stereo unspecified)
EC50 [2]: > 112 µM (not active)
EC50 [3]: > 112 µM (not active)

CC(=O)c1ccc(N2CCC(c3cc(-c4ccc(Cl)cc4)[nH]n3)CC2)c([N+](=O)[O-])c1
EC50 [5]: 1.13 µM (active)
EC50 [6]: > 60 µM (inconclusive)
AC50 [7]: 2.39 µM (active)
AC50 [8]: 5 µM (active)
AC50 [9]: > 70 µM (inactive)
AC50 [10]: 20 µM (active)
AC50 (Cytochrome P450 1A2): 2.82 µM (inconclusive)
AC50 (Cytochrome P450 3A4): 39.8 µM (inconclusive)

CC1CN=C(NC(=O)c2cccc([N+](=O)[O-])c2)S1 (stereo unspecified)
IC50 [11]: > 66 µM (inactive)
IC50 [12]: > 66 µM (inactive)

COc1ccc(NC(=O)c2nc3nc(C)cc(C(F)F)n3n2)cc1OC
EC50 [2]: 18.9 µM (active)
EC50 [3]: > 112 µM (not active)

O=[N+]([O-])c1ccc(CN2CCN(c3ccc(F)cc3)CC2)o1
IC50 (cells [4]): < 0.1 µM (active)

Cc1ccc2c(c1)C(c1ccc([N+](=O)[O-])cc1)=NNC(c1ccc(Br)cc1)=N2
CC50 [13]: 14.7 µM (active)

COc1ccc(S(=O)(=O)Cc2ccc(C(=O)N3CCN(c4ccc(Cl)cc4)CC3)o2)cc1
EC50 [14]: 16.3 µM (active)
EC50 [15]: 38.8 µM (active)
AC50 [1]: 5.64 µM (active)

CN(C)c1nc(-c2cn(CCC#N)c3ccccc23)cs1
IC50 [11]: > 66 µM (inactive)
IC50 [12]: 56.9 µM (inactive)

COc1ccc(OC)c(NC(=O)CS(=O)(=O)Cc2nc(-c3ccccc3C)oc2C)c1
EC50 [2]: > 112 µM (not active)
EC50 [3]: > 112 µM (not active)

CCOC(=O)c1c(NC(=O)/C=C/c2ccc3c(c2)OCO3)sc(C)c1CC
EC50 [2]: > 112 µM (not active)
EC50 [3]: > 112 µM (not active)
AC50 [7]: 1.04 µM (active)
AC50 (Cytochrome P450 1A2): 12.6 µM (inconclusive)

CCc1nc2sc3ccccc3c(=O)c2c(=O)n1Cc1ccc(OC)cc1
CC50 [13]: > 50 µM (active)
EC50 [16]: > 195 µM (not active)

CC(C)CN(C(=O)COC(=O)c1ccc2c(c1)NC(=O)CS2)C1CCS(=O)(=O)C1 (stereo unspecified)
IC50 [11]: > 66 µM (inactive)
IC50 [12]: > 66 µM (inactive)

O=C(NCc1cccs1)C1CC(=O)N(C2CCCC2)C1 (stereo unspecified)
EC50 (cells [17]): > 350 µM (not active)
EC50 (cells [18]): > 350 µM (not active)

CCOC(=O)Cc1cnc(S)nc1O
IC50 [11]: > 66 µM (inactive)
IC50 [12]: > 66 µM (inactive)

COc1ccc2oc(C(=O)OCC(=O)Nc3ccccc3OC)c(C)c2c1
EC50 (cells [17]): > 350 µM (not active)
EC50 (cells [18]): 40.5 µM (active)
